pKi: −log10 of the molar value.

This test has as its target T1, Caspase-1 (Homo sapiens, UniProt P29466).
T1 sequence (P29466 whole entry): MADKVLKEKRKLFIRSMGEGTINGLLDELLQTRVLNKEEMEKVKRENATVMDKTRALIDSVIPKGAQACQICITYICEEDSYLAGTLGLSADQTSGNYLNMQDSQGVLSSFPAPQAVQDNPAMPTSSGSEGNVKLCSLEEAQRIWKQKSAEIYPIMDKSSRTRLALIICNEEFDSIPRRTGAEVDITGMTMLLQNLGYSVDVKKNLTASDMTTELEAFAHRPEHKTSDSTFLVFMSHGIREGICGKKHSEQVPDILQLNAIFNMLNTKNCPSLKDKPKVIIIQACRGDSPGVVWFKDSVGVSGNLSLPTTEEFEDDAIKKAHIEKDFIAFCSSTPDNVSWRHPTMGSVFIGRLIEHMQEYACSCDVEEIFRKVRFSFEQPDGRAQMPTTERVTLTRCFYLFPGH
Briefly: Caspase Inhibition Assay. Particulars: pH 7; 37 °C. As to the method:
The substrate peptides terminating in AMC are processed by caspases with or without inhibitors, and the accumulation of AMC was assessed with a Cytofluor fluorescent plate reader at excitation and emission wavelengths of 380 and 460 nm. Compounds were tested, and full IC50 curves were run for all compounds expressing measurable inhibitory activity.
In turn, `O=C[C@H](CC(=O)O)NS(=O)(=O)c1ccccc1Oc1ccc(-c2ccc(C(=O)O)cc2)cc1` [4-[4-(2-{[(2S)-1-carboxy-3-oxopropan-2-yl]sulfamoyl}phenoxy)phenyl]benzoic acid] had a pKi of 5.38.
Turning to `Cc1cc(Oc2ccccc2S(=O)(=O)N[C@H](C=O)CC(=O)O)ccc1C(C)C` [(3S)-3-({2-[3-methyl-4-(propan-2-yl)phenoxy]benzene}sulfonamido)-4-oxobutanoic acid], the pKi is 6.96.
The same measure for `CCC(C)c1ccc(Oc2ccccc2S(=O)(=O)N[C@H](C=O)CC(=O)O)cc1C` (stereo partly drawn) [(3S)-3-({2-[4-(butan-2-yl)-3-methylphenoxy]benzene}sulfonamido)-4-oxobutanoic acid]: 7.00; for `CCC(C)c1ccc(Oc2ccccc2S(=O)(=O)N[C@H](C=O)CC(=O)O)cc1` (stereo partly drawn) [(3S)-3-({2-[4-(butan-2-yl)phenoxy]benzene}sulfonamido)-4-oxobutanoic acid]: 6.31; for `Cc1cccc(Oc2ccccc2S(=O)(=O)N[C@H](C=O)CC(=O)O)c1C` [(3S)-3-{[2-(2,3-dimethylphenoxy)benzene]sulfonamido}-4-oxobutanoic acid]: 6.00.
Next, `Cc1ccccc1Oc1ccccc1S(=O)(=O)N[C@H](C=O)CC(=O)O` [(3S)-3-{[2-(2-methylphenoxy)benzene]sulfonamido}-4-oxobutanoic acid]: 5.52.
`Cc1cccc(Oc2ccccc2S(=O)(=O)N[C@H](C=O)CC(=O)O)c1` [(3S)-3-{[2-(3-methylphenoxy)benzene]sulfonamido}-4-oxobutanoic acid] gave a pKi of 6.37.
Next, `O=C[C@H](CC(=O)O)NS(=O)(=O)c1ccccc1Oc1ccc(C2CCCCC2)cc1` [(3S)-3-{[2-(4-cyclohexylphenoxy)benzene]sulfonamido}-4-oxobutanoic acid]: 6.05; `O=C[C@H](CC(=O)O)NS(=O)(=O)c1ccccc1Oc1ccc(C2CCCC2)cc1` [(3S)-3-{[2-(4-cyclopentylphenoxy)benzene]sulfonamido}-4-oxobutanoic acid]: 6.06.
The same measure for `Cc1ccc(Oc2ccccc2S(=O)(=O)N[C@H](C=O)CC(=O)O)cc1` [(3S)-3-{[2-(4-methylphenoxy)benzene]sulfonamido}-4-oxobutanoic acid]: 5.96; for `CCC(CC)c1ccc(Oc2ccccc2S(=O)(=O)N[C@H](C=O)CC(=O)O)cc1` [(3S)-4-oxo-3-({2-[4-(pentan-3-yl)phenoxy]benzene}sulfonamido)butanoic acid]: 6.36.
Next, `CC(C)c1ccc(Oc2ccccc2S(=O)(=O)N[C@H](C=O)CC(=O)O)cc1` [(3S)-4-oxo-3-({2-[4-(propan-2-yl)phenoxy]benzene}sulfonamido)butanoic acid]: 6.21; `O=C[C@H](CC(=O)O)NS(=O)(=O)c1ccccc1Oc1ccccc1` [(3S)-4-oxo-3-[(2-phenoxybenzene)sulfonamido]butanoic acid]: 5.62; `Cc1cc(Oc2ccccc2S(=O)(=O)N[C@H](C=O)CC(=O)O)cc(C)c1C` [(3S)-4-oxo-3-{[2-(3,4,5-trimethylphenoxy)benzene]sulfonamido}butanoic acid]: 6.35.
In turn, `O=C[C@H](CC(=O)O)NS(=O)(=O)c1ccccc1Oc1ccc(-c2ccccc2)cc1` [(3S)-4-oxo-3-{[2-(4-phenylphenoxy)benzene]sulfonamido}butanoic acid] had a pKi of 6.54.

For the origin of these results see BindingDB's records for doi:10.1016/s0960-894x(01)00573-x (Pfizer, 2001).
